Columns and labels:
Assay in all cases: Growth inhibition of BT3(ΔPPO) E. coli transformed with 98% homology variant, LB solid medium
Settings in all cases: 1% agar LB solid medium, 37° C., 14~16 hours, light
CyPPO2 variant = type: cell-based, Oscillatoria nigro-viridis PCC 7112
From the text: (§1) To investigate amino acid sequence homology range of CyPPO2, CyPPO4 and CyPPO8 which maintain herbicide resistance, a part of the amino acid sequence of CyPPO2, CyPPO4 or CyPPO8 protein was replaced by a part of the amino acid sequence of NtPPO (tobacco-derived PPO gene). As a result, the amino acid sequence of the resulting CyPPO2 variant is represented by SEQ ID NO: 12, and its nucleotide sequence thereof is represented by SEQ ID NO: 13. […] Further, the amino acid sequence of the CyPPO4 variant is represented by SEQ ID NO: 14, and its nucleotide sequence thereof is represented by SEQ ID NO: 15. […] Further, the amino acid sequence of the CyPPO8 variant is represented by SEQ ID NO: 16, and its nucleotide sequence thereof is represented by SEQ ID NO: 17.
(§2) Herbicide resistance of the amino acid sequence variant of CyPPO2, the amino acid sequence variant of CyPPO4, and the amino acid sequence variant of CyPPO8 was investigated in PPO-deficient BT3 E. coli [BT3(ΔPPO)], and a specific experimental method is similar to that of Example 3. In the same manner as in Example 3, as a negative control, the wild-type PPO (wild-type AtPPO1) of Arabidopsis thaliana was employed as a reference for herbicide-sensitivity. As a positive control, the mutant AtPPO1 which was prepared by amino acid replacement of Y426M and S305L in the wild-type amino acid sequence was employed as a reference for herbicide-resistance.
(§3) An autoclave was used under conditions of 121° C. and 15 minutes, and an incubator was used at 37° C. with lighting of 169 μmol m^−2 s^−1 for a culture time of 14˜16 hours. A UV-visible spectrophotometer was used at 600 nm. PCR was performed under conditions of at 94° C. for 4 minutes, and 25 cycles (at 94° C. for 30 seconds, at 56˜60° C. for 30 seconds and at 72° C. for 3 minutes), at 72° C. for 5 minutes and at 4° C. for 5 minutes. Respective herbicides were prepared at a concentration of 200 mM in DMSO, and stored at −20° C. Before use, the herbicides were diluted and added to LB broth medium (containing […]).
(§4) Saturated cells were inoculated in 3 ml of LB liquid medium containing chloramphenicol, and then cultured at 37° C., 200 rpm for 5 hours. Density of the cultured cells was measured at 600 nm, and the transformants were diluted with LB liquid medium to have the same absorbance (OD600) per 1 ml thereof (OD600=0.5). Agar was added to LB liquid medium at a concentration of 1%, and then autoclaved. Chloramphenicol (34 μg/ml) and herbicide were added and mixed. Cells diluted equally was diluted at a density of 10^0, 10^−1, 10^−2, 10^−3, 10^−4, and 10^−5. Each 10 μl of the cells was dropped on 1% agar, LB solid medium, and cultured in a 37° C. incubator for 14˜16 hours (light condition: 169 μmol m^−2s^−1).
(§5) To prepare BT3(ΔPPO) competent cells, BT3(ΔPPO) strain was added to 5 ml of LB broth containing 50 μg/ml kanamycin and 20 μg/ml hematin, and cultured in a 37° C. shaking incubator for 12 hours in the dark. Thereafter, 5 ml of the culture was added to 100 ml of LB broth containing 20[…] μg/ml hematin, and cultured in a 37° C. shaking incubator in the dark until OD600 reached 0.5. BT3(ΔPPO) competent cells were prepared from the cultured E. coli using CaCl2 according to protocols for preparing competent cells. Next, to transform the BT3(ΔPPO) strain with the respective vectors harboring the CyPPO2 variant, CyPPO4 variant and CyPPO8 variant, 5 μl of the vector was added to 100 μl of BT3(ΔPPO) competent cells, and the mixture was mixed well, allowed to react on ice for 20 minutes, and then left at 42° C. for 40 seconds. After stabilization on ice for 2 minutes, 1 ml of LB broth was added to BT3(ΔPPO), and cultured at 37° C. for 1 hour with shaking. The cells cultured in the medium were collected according to the type of the gene insert, and then spread on LB solid medium containing chloramphenicol (34 μg/ml), and cultured at 37° C. for 12 hours or longer. Thereafter, single colonies thereof were cultured in LB liquid medium. […]

CyPPO4 variant = type: cell-based, Lyngbya sp. PCC 8106
From the text: as §1, §2, §3, §4, §5

CyPPO8 variant = type: cell-based, Halothece sp. PCC 7418
From the text: as §1, §2, §3, §4, §5

Measured: concentration at which growth inhibition was hardly observed

CC(C)=C1OC(=O)N(c2cc(OC3CCCC3)c(Cl)cc2F)C1=O [Pentoxazone]
25 µM: CyPPO2 variant | CyPPO4 variant | CyPPO8 variant

O=C(O)c1cc(Oc2ccc(C(F)(F)F)cc2Cl)ccc1[N+](=O)[O-] [Acifluorfen]
25 µM: CyPPO2 variant | CyPPO4 variant | CyPPO8 variant

CC(C)Oc1cc(-n2nc(C(C)(C)C)oc2=O)c(Cl)cc1Cl [Oxadiazon]
25 µM: CyPPO2 variant | CyPPO4 variant | CyPPO8 variant

C#CCN1C(=O)COc2cc(F)c(N3C(=O)C4=C(CCCC4)C3=O)cc21 [Flumioxazin]
25 µM: CyPPO2 variant | CyPPO4 variant | CyPPO8 variant

CS(=O)(=O)NC(=O)c1cc(Oc2ccc(C(F)(F)F)cc2Cl)ccc1[N+](=O)[O-] [Fomesafen]
25 µM: CyPPO2 variant | CyPPO4 variant | CyPPO8 variant

CC(C)N(C)S(=O)(=O)NC(=O)c1cc(-n2c(=O)cc(C(F)(F)F)n(C)c2=O)c(F)cc1Cl [Saflufenacil]
25 µM: CyPPO2 variant | CyPPO4 variant | CyPPO8 variant

C#CCN(C)c1c(C#N)cnn1-c1nn2c(c1Cl)CCCC2 [Pyraclonil]
25 µM: CyPPO2 variant | CyPPO4 variant | CyPPO8 variant

Cc1nn(-c2cc(NS(C)(=O)=O)c(Cl)cc2Cl)c(=O)n1C(F)F [Sulfentrazone]
25 µM: CyPPO2 variant | CyPPO4 variant | CyPPO8 variant

COC(=O)CSc1cc(/N=c2\sc(=O)n3n2CCCC3)c(F)cc1Cl [Fluthiacet-methyl]
25 µM: CyPPO2 variant | CyPPO4 variant | CyPPO8 variant

CCOc1cc(Oc2ccc(C(F)(F)F)cc2Cl)ccc1[N+](=O)[O-] [Oxyfluorfen]
25 µM: CyPPO2 variant | CyPPO4 variant | CyPPO8 variant

CCOC(=O)COc1cc(-c2nn(C)c(OC(F)F)c2Cl)c(F)cc1Cl [Pyraflufen-ethyl]
25 µM: CyPPO2 variant | CyPPO4 variant | CyPPO8 variant

COC(=O)CCNC(=O)C(C)Sc1cc(-n2c(=O)cc(C(F)(F)F)n(C)c2=O)c(F)cc1Cl (stereo not drawn) [Tiafenacil]
25 µM: CyPPO2 variant | CyPPO4 variant | CyPPO8 variant

C=CCOC(=O)C(C)(C)OC(=O)c1cc(-n2c(=O)cc(C(F)(F)F)n(C)c2=O)ccc1Cl [Butafenacil]
25 µM: CyPPO2 variant | CyPPO4 variant | CyPPO8 variant

Source: patent publication US11130960B2, “Methods for conferring or enhancing herbicide resistance on plants and/or alga with protoporphyrinogen oxidase variants” (FARM HANNONG CO., LTD., priority 2014, dated 2021)
